The numbers were not newly measured in US20040192598A1, “Composition and method of alleviating adverse side effects and/or enhancing efficacy of agents that inhibit aromatase” (priority 2000, published 2004), which cites them from elsewhere.

In data set [1] the target is T1, aromatase (Homo sapiens, UniProt P11511).
T1 construct: host or cells: patients (in vivo, endogenous enzyme)
T1 sequence (P11511 1-503): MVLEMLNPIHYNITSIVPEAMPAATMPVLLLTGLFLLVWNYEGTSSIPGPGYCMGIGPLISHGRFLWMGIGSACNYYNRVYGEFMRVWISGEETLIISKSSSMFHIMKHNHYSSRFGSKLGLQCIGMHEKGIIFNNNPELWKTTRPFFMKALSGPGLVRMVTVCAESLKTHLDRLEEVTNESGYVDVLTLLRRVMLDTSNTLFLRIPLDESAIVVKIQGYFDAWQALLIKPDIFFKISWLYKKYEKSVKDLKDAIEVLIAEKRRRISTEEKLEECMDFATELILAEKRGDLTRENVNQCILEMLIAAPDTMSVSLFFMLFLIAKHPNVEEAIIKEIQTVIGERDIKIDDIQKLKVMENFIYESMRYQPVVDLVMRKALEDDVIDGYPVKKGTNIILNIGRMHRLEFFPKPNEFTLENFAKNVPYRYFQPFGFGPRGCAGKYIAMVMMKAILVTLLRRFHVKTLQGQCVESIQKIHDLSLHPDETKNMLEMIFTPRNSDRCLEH
As to conditions: treatment for breast cancer.

Where two headings read alike, the source gives them in different places.

As for `N#Cc1ccc(C(c2ccc(C#N)cc2)n2cncn2)cc1` [Letrozole], in data set [1], the serum estrogen levels result is “suppress serum estrogen levels to the limit of assay detection”.
As for `CC(C)(C#N)c1cc(Cn2cncn2)cc(C(C)(C)C#N)c1` [anastrozole], the serum estrogen levels result in data set [1] was “suppress serum estrogen levels to the limit of assay detection”.
`Clc1ccccc1C(c1ccccc1)(c1ccccc1)n1ccnc1` [clotrimazole]: the “relative risk for spontaneous abortion” value (in vivo) is listed as “increased relative risk was also noted”.
As to `C[C@@H]1[C@H](O)[C@@H](C)/C=C/C=C/CC/C=C/C=C/C=C/C=C/C(O[C@H]2O[C@H](C)[C@@H](O)[C@H](N)[C@@H]2O)CC2O[C@](O)(CC(O)C(O)CCC(O)CC(O)CC(O)CC(=O)O[C@H]1C)CC(O)C2C(=O)O` (stereo partly shown) [nystatin], where the note is “first-trimester exposure, independent of drug therapy indication”, the “relative risk for spontaneous abortion” value is “not”.
